Experimental data: patent US9493455B2, “Azaindole derivatives as inhibitors of protein kinases” (ORIBASE PHARMA, priority 2012, dated 2016)

Legend:
Assay in all cases: In vitro kinase assay (Z′-LYTE)
Assay type in all cases: biochemical
[1] = biological target: T1, EPHB2 (Homo sapiens, UniProt P29323); conditions: read-out: percent inhibition of the kinase compared to the control
T1 construct: purchased Invitrogen
Summary of the method: (§1)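 Single-point inhibition at 100 nM per compound (10 μM for ABL T315I), 1% DMSO final. Kinase buffer: 50 mM HEPES pH 7.5, 0.01% BRIJ-35, 10 mM MgCl2, 1 mM EGTA; ATP at previously determined apparent Km. Readout by FRET emission ratio (Z′-LYTE).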

[2] = biological target: T2, FRK (Homo sapiens, UniProt P42685); conditions: read-out: percent inhibition of the kinase compared to the control
T2 construct: purchased Invitrogen
Summary of the method: as §1

[3] = biological target: T3, PKC theta (Homo sapiens, UniProt Q04759); conditions: read-out: percent inhibition of the kinase compared to the control
T3 construct: purchased Invitrogen
Summary of the method: as §1

[4] = biological target: T4, PDGFRB (Homo sapiens, UniProt P09619); conditions: read-out: % of inhibition of the kinase compared to the control
T4 construct: purchased Invitrogen
Summary of the method: as §1

[5] = biological target: T5, ABL E255K (Homo sapiens, UniProt P00519, E255K); conditions: read-out: percent inhibition of the kinase compared to the control
T5 construct: purchased Invitrogen
Summary of the method: as §1

[6] = biological target: T6, HCK (Homo sapiens, UniProt P08631); conditions: read-out: percent inhibition of the kinase compared to the control
T6 construct: purchased Invitrogen
Summary of the method: as §1

[7] = biological target: T7, FGR (Homo sapiens, UniProt P09769); conditions: read-out: percent inhibition of the kinase compared to the control
T7 construct: purchased Invitrogen
Summary of the method: as §1

[8] = biological target: T8, ABL T315I (Homo sapiens, UniProt P00519, T315I); conditions: read-out: % of inhibition of the kinase compared to the control
T8 construct: purchased Invitrogen
Summary of the method: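 Peptide/kinase mix combined with ATP (apparent Km) in 50 mM HEPES pH 7.5, 10 mM MgCl2, 1 mM EGTA, 0.01% BRIJ-35; compound present at 100 nM, except 10 μM for ABL T315I; DMSO 1% final. Protease development, then FRET emission ratio.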

[9] = biological target: T9, ERK2 (Homo sapiens, UniProt P28482); conditions: read-out: percent inhibition of the kinase compared to the control
T9 construct: purchased Invitrogen
Summary of the method: as §1

[10] = biological target: T10, EGFR (ErbB1) (Homo sapiens, UniProt P00533); conditions: read-out: % of inhibition of the kinase compared to the control
T10 construct: purchased Invitrogen
Summary of the method: as §1

[11] = biological target: T11, ABL2 (Homo sapiens, UniProt P42684); conditions: read-out: percent inhibition of the kinase compared to the control
T11 construct: purchased Invitrogen
Summary of the method: as §1

[12] = biological target: T12, FGFR2 (Homo sapiens, UniProt P21802); conditions: read-out: % of inhibition of the kinase compared to the control
T12 construct: purchased Invitrogen
Summary of the method: as §1

[13] = biological target: T13, BRAF (Homo sapiens, UniProt P15056); conditions: compound 100 nM; ATP 100 μM; read-out: % of inhibition of the kinase compared to the control
T13 construct: purchased Invitrogen
Summary of the method: as §1

[14] = biological target: T14, BLK (Homo sapiens, UniProt P51451); conditions: read-out: percent inhibition of the kinase compared to the control
T14 construct: purchased Invitrogen
T14 sequence (P51451 whole entry): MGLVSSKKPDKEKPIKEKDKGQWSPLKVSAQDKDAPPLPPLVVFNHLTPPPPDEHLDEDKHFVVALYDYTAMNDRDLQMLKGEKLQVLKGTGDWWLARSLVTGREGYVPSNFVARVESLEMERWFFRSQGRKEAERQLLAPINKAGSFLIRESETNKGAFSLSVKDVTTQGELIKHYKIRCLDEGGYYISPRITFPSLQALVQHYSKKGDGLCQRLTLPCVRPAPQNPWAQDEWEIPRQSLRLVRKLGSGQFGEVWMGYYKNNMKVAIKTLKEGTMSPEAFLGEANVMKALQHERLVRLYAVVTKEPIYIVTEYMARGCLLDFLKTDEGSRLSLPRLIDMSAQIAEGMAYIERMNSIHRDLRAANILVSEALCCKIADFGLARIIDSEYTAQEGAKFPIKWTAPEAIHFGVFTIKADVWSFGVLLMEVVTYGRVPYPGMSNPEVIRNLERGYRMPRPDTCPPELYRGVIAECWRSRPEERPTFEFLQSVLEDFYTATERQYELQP
Summary of the method: as §1

[15] = biological target: T15, BMX (Homo sapiens, UniProt P51813); conditions: read-out: percent inhibition of the kinase compared to the control
T15 construct: purchased Invitrogen
T15 sequence (P51813 whole entry): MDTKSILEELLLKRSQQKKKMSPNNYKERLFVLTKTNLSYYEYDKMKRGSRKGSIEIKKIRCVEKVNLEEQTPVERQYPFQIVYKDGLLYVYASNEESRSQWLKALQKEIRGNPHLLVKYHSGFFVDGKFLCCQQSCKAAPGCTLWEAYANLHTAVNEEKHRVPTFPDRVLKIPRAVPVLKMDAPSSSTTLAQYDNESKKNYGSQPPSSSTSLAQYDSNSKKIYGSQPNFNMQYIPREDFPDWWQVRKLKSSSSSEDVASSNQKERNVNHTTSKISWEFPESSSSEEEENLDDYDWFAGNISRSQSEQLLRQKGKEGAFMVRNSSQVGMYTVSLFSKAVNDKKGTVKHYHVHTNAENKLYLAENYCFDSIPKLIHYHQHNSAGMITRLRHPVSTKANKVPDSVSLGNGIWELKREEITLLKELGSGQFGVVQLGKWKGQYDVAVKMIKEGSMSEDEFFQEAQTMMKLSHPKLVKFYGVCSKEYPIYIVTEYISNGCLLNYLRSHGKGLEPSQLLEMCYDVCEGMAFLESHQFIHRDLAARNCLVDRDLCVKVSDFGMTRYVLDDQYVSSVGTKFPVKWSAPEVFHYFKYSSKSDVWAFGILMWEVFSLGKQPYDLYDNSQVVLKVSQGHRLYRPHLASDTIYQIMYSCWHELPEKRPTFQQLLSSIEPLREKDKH
Summary of the method: as §1

[16] = biological target: T16, ABL Y253F (Homo sapiens, UniProt P00519, Y253F); conditions: read-out: percent inhibition of the kinase compared to the control
T16 construct: purchased Invitrogen
Summary of the method: as §1

[17] = biological target: T17, HER2 (Homo sapiens, UniProt P04626); conditions: read-out: percent inhibition of the kinase compared to the control
T17 construct: purchased Invitrogen
T17 sequence (P04626 23-1255): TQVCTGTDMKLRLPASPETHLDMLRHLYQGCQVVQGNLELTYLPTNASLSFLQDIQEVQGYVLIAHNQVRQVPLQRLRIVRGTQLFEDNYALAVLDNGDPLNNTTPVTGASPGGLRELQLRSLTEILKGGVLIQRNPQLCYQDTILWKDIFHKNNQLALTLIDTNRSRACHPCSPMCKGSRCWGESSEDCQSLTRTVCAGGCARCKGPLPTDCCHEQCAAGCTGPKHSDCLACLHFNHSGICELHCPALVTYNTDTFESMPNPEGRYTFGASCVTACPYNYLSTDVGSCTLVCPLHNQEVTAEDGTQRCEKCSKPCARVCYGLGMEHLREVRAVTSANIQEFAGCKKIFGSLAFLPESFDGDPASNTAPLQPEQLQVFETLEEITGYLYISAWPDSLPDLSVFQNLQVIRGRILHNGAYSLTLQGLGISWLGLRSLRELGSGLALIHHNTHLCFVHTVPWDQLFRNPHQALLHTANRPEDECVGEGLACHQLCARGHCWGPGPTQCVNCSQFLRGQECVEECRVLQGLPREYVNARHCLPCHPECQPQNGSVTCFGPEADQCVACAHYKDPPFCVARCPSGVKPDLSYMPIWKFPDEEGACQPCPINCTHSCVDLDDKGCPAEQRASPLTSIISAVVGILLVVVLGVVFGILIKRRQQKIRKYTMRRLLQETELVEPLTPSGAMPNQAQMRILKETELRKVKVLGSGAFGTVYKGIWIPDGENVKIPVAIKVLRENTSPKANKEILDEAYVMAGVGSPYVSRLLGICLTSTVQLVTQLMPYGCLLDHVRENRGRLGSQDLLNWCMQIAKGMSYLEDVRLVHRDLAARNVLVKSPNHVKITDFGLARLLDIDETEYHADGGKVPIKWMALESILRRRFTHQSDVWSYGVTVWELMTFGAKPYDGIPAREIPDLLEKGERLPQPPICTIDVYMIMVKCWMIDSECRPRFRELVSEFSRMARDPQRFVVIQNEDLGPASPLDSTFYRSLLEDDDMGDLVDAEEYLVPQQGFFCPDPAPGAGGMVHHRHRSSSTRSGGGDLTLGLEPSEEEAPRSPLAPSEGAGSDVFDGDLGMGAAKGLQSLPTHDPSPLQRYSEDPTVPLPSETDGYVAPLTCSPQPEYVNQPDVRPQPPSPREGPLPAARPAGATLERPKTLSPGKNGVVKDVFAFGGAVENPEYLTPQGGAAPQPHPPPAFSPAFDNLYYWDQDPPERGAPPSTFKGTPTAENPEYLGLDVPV
Summary of the method: as §1

[18] = biological target: T18, YES (Homo sapiens, UniProt P07947); conditions: read-out: percent inhibition of the kinase compared to the control
T18 construct: purchased Invitrogen
Summary of the method: as §1

[19] = biological target: T19, FMS (Homo sapiens, UniProt P07333); conditions: read-out: percent inhibition of the kinase compared to the control
T19 construct: purchased Invitrogen
T19 sequence (P07333 20-972): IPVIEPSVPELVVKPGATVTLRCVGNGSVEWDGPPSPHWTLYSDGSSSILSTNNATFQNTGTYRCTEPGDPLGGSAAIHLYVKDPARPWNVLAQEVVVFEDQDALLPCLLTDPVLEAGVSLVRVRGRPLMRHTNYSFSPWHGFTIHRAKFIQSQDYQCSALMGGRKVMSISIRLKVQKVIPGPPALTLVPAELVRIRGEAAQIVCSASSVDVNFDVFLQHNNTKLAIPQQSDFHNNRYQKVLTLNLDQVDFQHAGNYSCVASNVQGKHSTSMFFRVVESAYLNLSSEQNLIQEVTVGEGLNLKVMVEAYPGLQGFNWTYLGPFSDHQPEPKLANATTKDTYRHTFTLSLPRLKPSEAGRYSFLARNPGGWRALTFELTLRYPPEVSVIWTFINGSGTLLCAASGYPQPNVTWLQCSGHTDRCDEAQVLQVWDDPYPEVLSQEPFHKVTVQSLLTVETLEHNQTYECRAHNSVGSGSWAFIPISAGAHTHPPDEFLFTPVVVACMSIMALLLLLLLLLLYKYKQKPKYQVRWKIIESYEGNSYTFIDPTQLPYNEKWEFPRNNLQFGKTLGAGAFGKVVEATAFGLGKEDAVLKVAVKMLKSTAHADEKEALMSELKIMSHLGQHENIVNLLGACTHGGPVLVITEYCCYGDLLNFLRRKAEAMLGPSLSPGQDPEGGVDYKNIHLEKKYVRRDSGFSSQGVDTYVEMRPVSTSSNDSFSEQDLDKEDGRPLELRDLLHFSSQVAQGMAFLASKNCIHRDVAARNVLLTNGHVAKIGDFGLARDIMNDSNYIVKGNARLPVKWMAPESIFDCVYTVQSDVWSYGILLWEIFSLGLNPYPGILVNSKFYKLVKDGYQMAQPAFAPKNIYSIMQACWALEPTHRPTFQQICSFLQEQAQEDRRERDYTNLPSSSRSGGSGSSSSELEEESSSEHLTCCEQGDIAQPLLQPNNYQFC
Summary of the method: as §1

[20] = biological target: T20, MAPK14 (Homo sapiens, UniProt Q16539); conditions: read-out: percent inhibition of the kinase compared to the control
T20 construct: purchased Invitrogen
T20 sequence (Q16539 whole entry): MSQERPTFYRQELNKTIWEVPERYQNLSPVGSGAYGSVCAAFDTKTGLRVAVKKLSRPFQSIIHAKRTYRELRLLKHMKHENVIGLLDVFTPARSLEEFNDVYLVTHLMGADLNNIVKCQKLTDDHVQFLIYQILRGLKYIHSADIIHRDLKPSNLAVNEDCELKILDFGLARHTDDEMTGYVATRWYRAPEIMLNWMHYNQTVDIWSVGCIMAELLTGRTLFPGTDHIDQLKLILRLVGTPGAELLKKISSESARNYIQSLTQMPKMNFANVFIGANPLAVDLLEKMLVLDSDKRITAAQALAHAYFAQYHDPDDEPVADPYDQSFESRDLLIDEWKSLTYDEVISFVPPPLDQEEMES
Summary of the method: as §1

[21] = biological target: T21, ABL (Homo sapiens, UniProt P00519); conditions: read-out: % of inhibition of the kinase compared to the control
T21 construct: purchased Invitrogen

[22] = biological target: T22, RET (Homo sapiens, UniProt P07949); conditions: read-out: percent inhibition of the kinase compared to the control
T22 construct: purchased Invitrogen
Summary of the method: as §1

[23] = biological target: T23, ERBB4 (Homo sapiens, UniProt Q15303); conditions: read-out: percent inhibition of the kinase compared to the control
T23 construct: purchased Invitrogen
Summary of the method: as §1

[24] = biological target: T24, EPHB4 (Homo sapiens, UniProt P54760); conditions: read-out: percent inhibition of the kinase compared to the control
T24 construct: purchased Invitrogen
Summary of the method: as §1

[25] = biological target: T25, EPHA1 (Homo sapiens, UniProt P21709); conditions: read-out: percent inhibition of the kinase compared to the control
T25 construct: purchased Invitrogen
Summary of the method: as §1

[26] = biological target: T26, LYN A (Homo sapiens, UniProt P07948); conditions: read-out: percent inhibition of the kinase compared to the control
T26 construct: purchased Invitrogen
Summary of the method: as §1

[27] = biological target: T27, VEGFR1 (Homo sapiens, UniProt P17948); conditions: read-out: % of inhibition of the kinase compared to the control
T27 construct: purchased Invitrogen
Summary of the method: as §1

[28] = biological target: T28, FLT3 (Homo sapiens, UniProt P36888); conditions: read-out: percent inhibition of the kinase compared to the control
T28 construct: purchased Invitrogen
Summary of the method: as §1

[29] = biological target: T29, CSK (Homo sapiens, UniProt P41240); conditions: read-out: percent inhibition of the kinase compared to the control
T29 construct: purchased Invitrogen
Summary of the method: as §1

[30] = biological target: T30, EGFR (ErbB1) T790M L858R (Homo sapiens, UniProt P00533, L858R/T790M); conditions: read-out: % of inhibition of the kinase compared to the control
T30 construct: purchased Invitrogen
Summary of the method: as §1

[31] = biological target: T31, VEGFR3 (Homo sapiens, UniProt P35916); conditions: read-out: percent inhibition of the kinase compared to the control
T31 construct: purchased Invitrogen
T31 sequence (P35916 25-1363): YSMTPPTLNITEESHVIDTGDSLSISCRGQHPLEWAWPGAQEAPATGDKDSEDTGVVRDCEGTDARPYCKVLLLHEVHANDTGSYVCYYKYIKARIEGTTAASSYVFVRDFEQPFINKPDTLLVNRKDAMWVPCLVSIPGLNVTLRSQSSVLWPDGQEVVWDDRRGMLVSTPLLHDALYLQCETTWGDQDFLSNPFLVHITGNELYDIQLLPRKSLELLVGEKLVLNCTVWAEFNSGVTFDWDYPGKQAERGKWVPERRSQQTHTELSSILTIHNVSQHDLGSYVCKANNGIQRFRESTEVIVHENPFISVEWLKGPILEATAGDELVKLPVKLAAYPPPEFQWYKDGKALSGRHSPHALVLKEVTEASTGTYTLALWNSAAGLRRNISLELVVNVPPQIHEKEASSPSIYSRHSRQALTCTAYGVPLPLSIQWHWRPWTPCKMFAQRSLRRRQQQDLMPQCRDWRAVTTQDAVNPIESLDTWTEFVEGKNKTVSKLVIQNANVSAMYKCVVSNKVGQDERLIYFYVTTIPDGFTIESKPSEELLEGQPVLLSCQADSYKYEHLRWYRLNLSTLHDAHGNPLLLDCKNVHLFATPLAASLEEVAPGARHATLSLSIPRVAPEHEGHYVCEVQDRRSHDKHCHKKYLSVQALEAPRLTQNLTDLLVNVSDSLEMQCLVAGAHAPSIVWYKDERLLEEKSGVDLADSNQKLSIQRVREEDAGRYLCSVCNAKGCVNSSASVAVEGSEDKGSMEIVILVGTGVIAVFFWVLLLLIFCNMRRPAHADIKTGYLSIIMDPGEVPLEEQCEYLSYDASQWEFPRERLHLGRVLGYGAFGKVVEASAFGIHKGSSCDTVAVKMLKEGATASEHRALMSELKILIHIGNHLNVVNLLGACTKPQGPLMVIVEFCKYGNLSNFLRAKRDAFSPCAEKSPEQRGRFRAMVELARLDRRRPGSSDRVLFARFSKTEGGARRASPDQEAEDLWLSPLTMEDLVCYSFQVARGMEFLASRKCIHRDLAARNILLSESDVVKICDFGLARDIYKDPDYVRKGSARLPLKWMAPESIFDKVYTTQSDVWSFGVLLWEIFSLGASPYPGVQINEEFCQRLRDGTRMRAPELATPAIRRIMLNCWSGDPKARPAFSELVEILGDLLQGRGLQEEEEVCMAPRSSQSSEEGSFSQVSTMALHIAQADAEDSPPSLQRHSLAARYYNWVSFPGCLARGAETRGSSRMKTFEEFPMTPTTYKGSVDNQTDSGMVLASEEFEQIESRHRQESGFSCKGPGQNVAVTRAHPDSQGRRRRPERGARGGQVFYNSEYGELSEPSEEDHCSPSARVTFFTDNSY
Summary of the method: as §1

[32] = biological target: T32, FES (Homo sapiens, UniProt P07332); conditions: read-out: percent inhibition of the kinase compared to the control
T32 construct: purchased Invitrogen
Summary of the method: as §1

inhibition at 0.1 µM [1]: > 50%
inhibition at 0.1 µM [2]: > 50%
inhibition at 0.1 µM [3]: > 50%
inhibition at 0.1 µM [4]: ≥ 50%
inhibition at 0.1 µM [5]: > 50%
inhibition at 0.1 µM [6]: > 50%
inhibition at 0.1 µM [7]: > 50%
inhibition at 10 µM [8]: ≥ 50%
inhibition at 0.1 µM [9]: > 50%
inhibition at 0.1 µM [10]: ≥ 50%
inhibition at 0.1 µM [11]: > 50%
inhibition at 0.1 µM [12]: ≥ 50%
inhibition at 0.1 µM [13]: ≥ 50%
inhibition at 0.1 µM [14]: > 50%
inhibition at 0.1 µM [15]: > 50%
inhibition at 0.1 µM [16]: > 50%
inhibition at 0.1 µM [17]: > 50%
inhibition at 0.1 µM [18]: > 50%
inhibition at 0.1 µM [19]: > 50%
inhibition at 0.1 µM [20]: > 50%
inhibition at 10 µM [21]: ≥ 50%
inhibition at 0.1 µM [22]: > 50%
inhibition at 0.1 µM [23]: > 50%
inhibition at 0.1 µM [24]: > 50%
inhibition at 0.1 µM [25]: > 50%
inhibition at 0.1 µM [26]: > 50%
inhibition at 0.1 µM [27]: < 50%
inhibition at 0.1 µM [28]: > 50%
inhibition at 0.1 µM [29]: > 50%
inhibition at 0.1 µM [30]: < 50%
inhibition at 0.1 µM [31]: > 50%
inhibition at 0.1 µM [32]: > 50%
SMILES: COC(=O)c1cc2cc(NCc3cc(NC(=O)c4ccc(CN5CCN(C)CC5)c(C(F)(F)F)c4)ccc3C)cnc2[nH]1 [OR0512]
